Assay results as given in patent US10792303B2, “Compositions and methods for inducing beige or brown fat tissue” (Logick Energetics, priority 2015, dated 2020).

Tested on: KS-483 cells
Experiment: qPCR gene expression in KS-483 cells after compound stimulation
Format: cell-based
Conditions: 3 days stimulation, Indo 5 uM; for BMP-4 gene expression (control = 1) / BMP-7 gene expression (control = 1) / CD36 gene expression (control = 1) / CEBP gene expression (control = 1) / CIDEA gene expression (control = 1) / DKK2 gene expression (control = 1) / FABP-4 gene expression (control = 1) / FGF21 gene expression (control = 1) / LPL gene expression (control = 1) / LRP5 gene expression (control = 1) / O3FAR1 gene expression (control = 1) / PLIN1 gene expression (control = 1) / PPAR-γ gene expression (control = 1) / PRDM16 gene expression (control = 1) / PpargC1α/PGC-1α gene expression (control = 1) / SCD1 gene expression (control = 1) / SLC2A4 gene expression (control = 1) / WNT5a gene expression (control = 1) / WNT6 gene expression (control = 1) / WNT10a gene expression (control = 1) / WNT11 gene expression (control = 1) / Adipoq gene expression (control = 1) / CFD gene expression (control = 1) / Noggin gene expression (control = 1) / UCP-1 gene expression (control = 1): Pentosan 5 ug/ml; for BMP-2 gene expression (control = 1): Pentosan 0.05 ug/ml
Method: The genes in KS-483 cells were assessed for up- or downregulation after stimulation with compound. Briefly, KS-483 cells were cultured under standard culturing conditions in α-MEM medium supplemented with glutamax, penicillin/streptomycin and 10% heat-inactivated Foetal Calf Serum (FCS).
For gene-expression analysis cells were seeded at 9210 cells/cm2 in 6-wells culture plates (Costar). At day 4, when cells were confluent, cells were stimulated with compounds in the presence of 5 μg/ml vitamin C. After 72 hours stimulation, cells were washed with PBS and subsequently RNA from the cells was isolated in 1 ml TRIzol (Invitrogen) following a standard TRIzol isolation protocol. RNA concentration and purity was assessed on a Nanodrop 1000 (Thermo Scientific). Single strand cDNA was synthesized from the isolated mRNA using reverse transcriptase (RT). Subsequently, SYBR green real-time PCR, also known as qPCR, was used to quantify differential gene expression of selected genes normalized to the expression of the housekeeping gene beta-2 microglobulin (b2m). […] The qPCR protocol applied was as follows:
15 minutes at 95° C. to activate Taq DNA polymerase, inactivate reverse transcriptase and denaturate the cDNA template.
40 cycles of 15 seconds denaturation at 95° C., 30 seconds annealing at 55° C. and 30 seconds of extension at 72° C.
At the melting point, the two strands of DNA will separate and the fluorescence rapidly decreases. Presence of multiple melting point, pointing at contaminated end-products was verified.
The threshold cycle or CT value (the cycle at which a statistically significant increase in normalized fluorescence intensity is first detected) were determined and relative fold change of genes of interest compared to b2m was determined.
The control has an expression of 1; values higher than 1 imply up-regulation of the gene; values lower than 1 imply down-regulation of genes.

COc1ccc2c(c1)c(CC(=O)O)c(C)n2C(=O)c1ccc(Cl)cc1 [Indo, Indomethacin]
BMP-4 gene expression (control = 1) (1 ng c-DNA): 0.81 | BMP-7 gene expression (control = 1) (1 ng c-DNA): 1.62 | CD36 gene expression (control = 1) (1 ng c-DNA): 181.5 | CEBP gene expression (control = 1) (1 ng c-DNA): 1.19 | CIDEA gene expression (control = 1) (1 ng c-DNA): 0.95 | DKK2 gene expression (control = 1) (1 ng c-DNA): 1.06 | FABP-4 gene expression (control = 1) (1 ng c-DNA): 162.94 | FGF21 gene expression (control = 1) (1 ng c-DNA): 2.33 | LPL gene expression (control = 1) (1 ng c-DNA): 4.43 | LRP5 gene expression (control = 1) (1 ng c-DNA): 1.58 | O3FAR1 gene expression (control = 1) (1 ng c-DNA): 2.26 | PLIN1 gene expression (control = 1) (1 ng c-DNA): 354.02 | PPAR-γ gene expression (control = 1) (1 ng c-DNA): 0.91 | PRDM16 gene expression (control = 1) (1 ng c-DNA): 1.58 | PpargC1α/PGC-1α gene expression (control = 1) (1 ng c-DNA): 1.15 | SCD1 gene expression (control = 1) (1 ng c-DNA): 1.32 | SLC2A4 gene expression (control = 1) (1 ng c-DNA): 2.09 | WNT5a gene expression (control = 1) (1 ng c-DNA): 0.73 | WNT6 gene expression (control = 1) (1 ng c-DNA): 0.83 | WNT10a gene expression (control = 1) (1 ng c-DNA): 0.92 | WNT11 gene expression (control = 1) (1 ng c-DNA): 1.01 | BMP-2 gene expression (control = 1) (10 ng c-DNA): 1.96 | Adipoq gene expression (control = 1) (10 ng c-DNA): 251.30 | CFD gene expression (control = 1) (10 ng c-DNA): 413.23 | CIDEA gene expression (control = 1) (10 ng c-DNA): 1.86 | Noggin gene expression (control = 1) (10 ng c-DNA): 2.25 | O3FAR1 gene expression (control = 1) (10 ng c-DNA): 5.68 | UCP-1 gene expression (control = 1) (10 ng c-DNA): 2.18

Pentosan polysulfate
BMP-4 gene expression (control = 1) (1 ng c-DNA): 0.77 | BMP-7 gene expression (control = 1) (1 ng c-DNA): 0.77 | CD36 gene expression (control = 1) (1 ng c-DNA): 2.60 | CEBP gene expression (control = 1) (1 ng c-DNA): 0.63 | CIDEA gene expression (control = 1) (1 ng c-DNA): 5.50 | DKK2 gene expression (control = 1) (1 ng c-DNA): 0.14 | FABP-4 gene expression (control = 1) (1 ng c-DNA): 3.83 | FGF21 gene expression (control = 1) (1 ng c-DNA): 0.23 | LPL gene expression (control = 1) (1 ng c-DNA): 2.33 | LRP5 gene expression (control = 1) (1 ng c-DNA): 3.27 | O3FAR1 gene expression (control = 1) (1 ng c-DNA): 0.44 | PLIN1 gene expression (control = 1) (1 ng c-DNA): 17.47 | PPAR-γ gene expression (control = 1) (1 ng c-DNA): 1.55 | PRDM16 gene expression (control = 1) (1 ng c-DNA): 1.85 | PpargC1α/PGC-1α gene expression (control = 1) (1 ng c-DNA): 2.09 | SCD1 gene expression (control = 1) (1 ng c-DNA): 0.85 | SLC2A4 gene expression (control = 1) (1 ng c-DNA): 1.07 | WNT5a gene expression (control = 1) (1 ng c-DNA): 0.76 | WNT6 gene expression (control = 1) (1 ng c-DNA): 0.16 | WNT10a gene expression (control = 1) (1 ng c-DNA): 0.03 | WNT11 gene expression (control = 1) (1 ng c-DNA): 0.12 | BMP-2 gene expression (control = 1) (10 ng c-DNA): 1.32 | Adipoq gene expression (control = 1) (10 ng c-DNA): 32.00 | CFD gene expression (control = 1) (10 ng c-DNA): 40.86 | CIDEA gene expression (control = 1) (10 ng c-DNA): 9.19 | Noggin gene expression (control = 1) (10 ng c-DNA): 3.56 | O3FAR1 gene expression (control = 1) (10 ng c-DNA): 1.14 | UCP-1 gene expression (control = 1) (10 ng c-DNA): 2.85
